US20240049725A1, “CO[…] OTHER IN[…] AND USES THEREOF” (SYNGENTA CROP PROTECTION AG, priority 2020, published 2024)
Positions of bridges follow the written chain, without caps; N, C: chain ends. Residues, ends and D or L forms follow the SMILES beside them.

Tests used:
Plutella xylostella L1 = test: leaf disc spray test on Brassica chinensis, mortality of Plutella xylostella L1 larvae; assay type: in vivo; conditions: Abbott-corrected
Experimental: (§1) Brassica chinensis leaf discs with a 5 cm diameter were cut out and placed in a Petri dish which was prepared with 3 filter paper and 800 μl water. 100 μl of test solution was applied on the lower surface by spraying and dried to air. Next, the leaf was flipped and 100 μl of test solution was applied on the upper surface by spraying and dried to air. The leaf 3 was infested with 10 L1 larvae of Plutella xylostella, after which the dish was closed with a cotton filter and a plastic lid. The Petri dish was placed in a climate chamber at a temperature of 25° C., a relative humidity of 65% and with no artificial light cycle. Four days after infestation 150 μl water was added to the Petri dish. Three Petri dishes were assessed per treatment.

[1] = system: larvae of Helicoverpa armigera; conditions: Jennings et al, 2005; cited from earlier work
[2] = system: crustaceans, cockroaches, blow fly larvae and Helicoverpa armigera; conditions: in vivo; cited from earlier work
Spodoptera littoralis L1 = test: leaf disc spray test on Gossypium hirsutum, mortality of Spodoptera littoralis L1 larvae; assay type: in vivo; conditions: 10000 ppm, Abbott-corrected
Experimental: as §1, with “Gossypium hirsutum” for “Brassica chinensis”, “leaf” for “leaf 3”, “Spodoptera littoralis,” for “Plutella xylostella,”, “cycle. Two days after infestation 200 μl water was added to the Petri dish.” for “cycle.”, “500” for “150”

Plutella xylostella L3 = test: leaf disc spray test on Brassica chinensis, mortality of Plutella xylostella L3 larvae; assay type: in vivo; conditions: Abbott-corrected
Experimental: as §1, with “leaf” for “leaf 3”, “L3” for “L1”, “larvae (6-7 days old)” for “larvae”

Cydia pomonella L1 = test: artificial diet test in 24-well plate, mortality of Cydia pomonella L1 larvae; assay type: in vivo; conditions: 10000 ppm; Table E; Abbott-corrected
Experimental: An artificial diet was prepared. 1.5 ml of artificial diet was applied in a well of a 24-well plate followed by 50 μl of test solution by spraying. The well-plate was infested with 1 L1 larva of Cydia pomonella per well, after which the plate was closed with a carton filter and a metal lid. The 24-well plate was placed in a climate chamber at a temperature of 25° C., a relative humidity of 65% and with no artificial light cycle. Five wells (replicates) were assessed per treatment.

## CC[C@H](C)[C@@H]1NC(=O)[C@@H]2CCCN2C(=O)[C@H](Cc2c[nH]c3ccccc23)NC(=O)[C@H]([C@@H](C)O)NC(=O)[C@@H]2CSSC[C@@H]3NC(=O)[C@H]([C@@H](C)O)NC(=O)[C@H](CCC(=O)O)NC(=O)CNC(=O)[C@@H]4CSSC[C@H](NC(=O)CNC(=O)[C@@H]5CCCN5C(=O)[C@H]([C@@H](C)O)NC(=O)[C@H](CC(N)=O)NC(=O)[C@H](CSSC[C@H](NC1=O)C(=O)N[C@@H]([C@@H](C)O)C(=O)N[C@@H](CCCNC(=N)N)C(=O)N[C@@H](CC(=O)O)C(=O)NCC(=O)N[C@@H](CC(C)C)C(=O)N1CCC[C@H]1C(=O)N[C@@H](C(C)C)C(=O)N4)NC(=O)[C@H]([C@@H](C)O)NC(=O)CNC(=O)CNC(=O)[C@H](Cc1ccccc1)NC3=O)C(=O)N[C@@H](CO)C(=O)N2 [SEQ ID NO: 2 (kB2), Kalata B2] (cyclo(CFGGTCNTPGCSCTWPICTRDGLPVCGET); disulfide 1-13, 6-18, 11-26 (inferred); ring closure inferred)
Plutella xylostella L1; 157 ppm, Table B2
  observed mortality of Plutella xylostella L1, 1 d after infestation: 0%
  observed mortality of Plutella xylostella L1, 2 d after infestation: 0%
  observed mortality of Plutella xylostella L1, 3 d after infestation: 0%
  observed mortality of Plutella xylostella L1, 4 d after infestation: 0%
  observed mortality of Plutella xylostella L1, 7 d after infestation: 0%
Plutella xylostella L1; 625 ppm, Table C
  observed mortality of Plutella xylostella L1, 1 d after infestation: 0%
  observed mortality of Plutella xylostella L1, 2 d after infestation: 0%
  observed mortality of Plutella xylostella L1, 3 d after infestation: 4%
  observed mortality of Plutella xylostella L1, 4 d after infestation: 4%
  observed mortality of Plutella xylostella L1, 6 d after infestation: 0%
[1]
  insecticidal activity against the larvae of Helicoverpa armigera: potent insecticidal activity

## CC(C)C[C@@H]1NC(=O)CNC(=O)[C@H](CC(N)=O)NC(=O)[C@H](CCCNC(=N)N)NC(=O)[C@H]([C@@H](C)O)NC(=O)[C@@H]2CSSC[C@@H]3NC(=O)[C@H]([C@@H](C)O)NC(=O)CNC(=O)CNC(=O)[C@H](C(C)C)NC(=O)[C@@H]4CSSC[C@H](NC(=O)[C@H]([C@@H](C)O)NC(=O)[C@H](CSSC[C@H](NC(=O)[C@H](C(C)C)NC(=O)[C@@H]5CCCN5C1=O)C(=O)NCC(=O)N[C@@H](CCC(=O)O)C(=O)N[C@@H]([C@@H](C)O)C(=O)N4)NC(=O)CNC(=O)[C@@H]1CCCN1C(=O)[C@H]([C@@H](C)O)NC(=O)[C@H](CC(N)=O)NC3=O)C(=O)N[C@@H](CO)C(=O)N[C@@H](Cc1c[nH]c3ccccc13)C(=O)N1CCC[C@H]1C(=O)N[C@@H](CCCCN)C(=O)N2 [SEQ ID NO: 6 (kB1[V25K]), Mutated kB1 (kB1[V25K])] (cyclo(CGETCVGGTCNTPGCTCSWPKCTRNGLPV); disulfide 1-15, 5-17, 10-22 (inferred); ring closure inferred)
Plutella xylostella L1; 625 ppm, Table C
  observed mortality of Plutella xylostella L1, 1 d after infestation: 0%
  observed mortality of Plutella xylostella L1, 2 d after infestation: 0%
  observed mortality of Plutella xylostella L1, 3 d after infestation: 0%
  observed mortality of Plutella xylostella L1, 4 d after infestation: 0%
  observed mortality of Plutella xylostella L1, 6 d after infestation: 0%

## CC(C)[C@H](NC(=O)[C@H](CCCCN)NC(=O)[C@@H]1CCCN1C(=O)CNC(=O)[C@H](CO)NC(=O)[C@@H]1CSSC[C@@H]2NC(=O)[C@@H]3CCCN3C(=O)[C@@H]3CSSC[C@H](NC(=O)CNC(=O)CNC(=O)[C@H](Cc4c[nH]c5ccccc45)NC(=O)[C@H](Cc4ccc(O)cc4)NC2=O)C(=O)N2CCC[C@H]2C(=O)N[C@@H](Cc2c[nH]c4ccccc24)C(=O)NCC(=O)N[C@@H](CCC(N)=O)C(=O)N[C@@H](CC(N)=O)C(=O)N[C@@H](CSSC[C@H](NC(=O)[C@H](CO)NC(=O)[C@@H](N)CCCNC(=N)N)C(=O)N3)C(=O)N[C@@H](Cc2ccc(O)cc2)C(=O)N2CCC[C@H]2C(=O)N[C@@H](CCC(=O)O)C(=O)NCC(=O)N1)C(=O)O [SEQ ID NO: 4 (Av3), Av3]
[2]
  toxicity to crustaceans, cockroaches, blow fly larvae and Helicoverpa armigera: toxic

## CC(C)C[C@@H]1NC(=O)CNC(=O)[C@H](CC(N)=O)NC(=O)[C@H](CCCNC(=N)N)NC(=O)[C@H]([C@@H](C)O)NC(=O)[C@@H]2CSSC[C@@H]3NC(=O)[C@H]([C@@H](C)O)NC(=O)CNC(=O)CNC(=O)[C@H](C(C)C)NC(=O)[C@@H]4CSSC[C@H](NC(=O)[C@H]([C@@H](C)O)NC(=O)[C@H](CSSC[C@H](NC(=O)[C@H](C(C)C)NC(=O)[C@@H]5CCCN5C1=O)C(=O)NCC(=O)N[C@@H](CCC(=O)O)C(=O)N[C@@H]([C@@H](C)O)C(=O)N4)NC(=O)CNC(=O)[C@@H]1CCCN1C(=O)[C@H]([C@@H](C)O)NC(=O)[C@H](CC(N)=O)NC3=O)C(=O)N[C@@H](CO)C(=O)N[C@@H](Cc1c[nH]c3ccccc13)C(=O)N1CCC[C@H]1C(=O)N[C@@H](C(C)C)C(=O)N2 [SEQ ID NO: 1 (kB1), Kalata B1]
Spodoptera littoralis L1; Table A
  observed mortality of Spodoptera littoralis L1, 1 d after infestation: 0%
  observed mortality of Spodoptera littoralis L1, 2 d after infestation: 35%
  observed mortality of Spodoptera littoralis L1, 3 d after infestation: 29%
  observed mortality of Spodoptera littoralis L1, 6 d after infestation: 32%
Spodoptera littoralis L1; Table G
  observed mortality of Spodoptera littoralis L1, 1 d after infestation: 5%
  observed mortality of Spodoptera littoralis L1, 2 d after infestation: 25%
  observed mortality of Spodoptera littoralis L1, 3 d after infestation: 36%
Plutella xylostella L1; 625 ppm, Table B1
  observed mortality of Plutella xylostella L1, 1 d after infestation: 0%
  observed mortality of Plutella xylostella L1, 2 d after infestation: 0%
  observed mortality of Plutella xylostella L1, 3 d after infestation: 3%
  observed mortality of Plutella xylostella L1, 4 d after infestation: 14%
  observed mortality of Plutella xylostella L1, 7 d after infestation: 17%
Plutella xylostella L1; 625 ppm, Table C
  observed mortality of Plutella xylostella L1, 1 d after infestation: 0%
  observed mortality of Plutella xylostella L1, 2 d after infestation: 11%
  observed mortality of Plutella xylostella L1, 3 d after infestation: 9%
  observed mortality of Plutella xylostella L1, 4 d after infestation: 22%
  observed mortality of Plutella xylostella L1, 6 d after infestation: 20%
Plutella xylostella L3; 2500 ppm, Table D
  observed mortality of Plutella xylostella L3, 1 d after infestation: 0%
  observed mortality of Plutella xylostella L3, 2 d after infestation: 0%
  observed mortality of Plutella xylostella L3, 3 d after infestation: 3%
  observed mortality of Plutella xylostella L3, 4 d after infestation: 20%
Plutella xylostella L3; 5000 ppm, Table D
  observed mortality of Plutella xylostella L3, 1 d after infestation: 0%
  observed mortality of Plutella xylostella L3, 2 d after infestation: 0%
  observed mortality of Plutella xylostella L3, 3 d after infestation: 3%
  observed mortality of Plutella xylostella L3, 4 d after infestation: 37%
Plutella xylostella L3; 5000 ppm, Table F
  observed mortality of Plutella xylostella L3, 1 d after infestation: 0%
  observed mortality of Plutella xylostella L3, 2 d after infestation: 0%
  observed mortality of Plutella xylostella L3, 3 d after infestation: 22%
Cydia pomonella L1
  observed mortality of Cydia pomonella L1, 1 d after infestation: 20%
  observed mortality of Cydia pomonella L1, 2 d after infestation: 20%
  observed mortality of Cydia pomonella L1, 3 d after infestation: 20%
  observed mortality of Cydia pomonella L1, 4 d after infestation: 20%
  observed mortality of Cydia pomonella L1, 7 d after infestation: 20%
[1]
  insecticidal activity against the larvae of Helicoverpa armigera: potent insecticidal activity
